Columns and labels:
Lens GSH = Lens GSH and GSSG level (enzymatic recycling method) in BSO-treated rats
Experimental: Animals were divided into 3 groups and given 4 injections per day for 2 days, according to the following protocol: Each experimental group consisted of 20-25 animals. BSO, L-Buthionine-(S,R)-sulfoximine was dissolved in 0.1 M NaCl and injected at a concentration of 3 mmol/g body weight (total volume not exceeding 60 ml). CLX-SYN-G165-001 was dissolved in ethanol: NaCl (50:50, v/v). BSO was injected subcutaneously into new born animals (age 28-36 hours). CLX-SYN-G165-001 (15 mg/kg b.w.) was given intraperitoneally. An equivalent volume of ethanol: NaCl and/or NaCl was given to the controls. Rats were sacrificed when they opened their eyes (14-15 days). […] Isolation of lenses: After decapitation of the animals the eyes were carefully dissected out from the ciliary body and the lens capsule was released from the enucleated eye globes. Each lens was weighed and placed in a microfuge tube and frozen immediately in liquid nitrogen for future analyses. Glutathione: Frozen lenses were homogenized in 5% sulfosalicylic acid, 5 mM EDTA, ice cold and bubbled with argon. After centrifugation GSH and GSSG were determined by the enzymatic recycling method.

[1] = test system: BSO-Induced Cataract Formation; test: BSO-induced cataract formation in rats (slit-lamp, lenses opaque or clear); conditions: read at 14-15 days; for animals developed cataract: new born rats
Experimental: Effects of CLX-SYN-G165-001 on BSO-Induced Cataract Formation in Rats Sprague-Dawley rats (female, timed pregnant) were housed in the Research Animal Facilities and given food and water ad libitum. They were breast fed.
Animals were divided into 3 groups and given 4 injections per day for 2 days, according to the following protocol: Each experimental group consisted of 20-25 animals. BSO, L-Buthionine-(S,R)-sulfoximine was dissolved in 0.1 M NaCl and injected at a concentration of 3 mmol/g body weight (total volume not exceeding 60 ml). CLX-SYN-G165-001 was dissolved in ethanol: NaCl (50:50, v/v). BSO was injected subcutaneously into new born animals (age 28-36 hours). CLX-SYN-G165-001 (15 mg/kg b.w.) was given intraperitoneally. An equivalent volume of ethanol: NaCl and/or NaCl was given to the controls. Rats were sacrificed when they opened their eyes (14-15 days). Cataract formation was visualized with a slit-lamp microscope and the lenses were classified as opaque or clear.

SMILES	lens GSH level, % that of control level (Lens GSH; treatment with BSO and CLX-SYN-G165-001, p<0.001 vs BSO only)	animals developed cataract ([1]; BSO plus CLX-SYN-G165-001 (15 mg/kg b.w. intraperitoneally), 4 injections per day for 2 days, p<0.005 vs BSO only) [%]	animals developed cataract ([1]; CLX-SYN-G165-001 without BSO (15 mg/kg b.w. intraperitoneally)) [%]	GSH in the lenses, % lower than that of the control lenses (Lens GSH; BSO-treated rats)	animals developed cataracts ([1]; BSO alone, subcutaneously, new born rats (age 28-36 hours)) [%]
CC(C)=CCC[C@@H](C)[C@H]1CC[C@@]2(C)C3=C(CC[C@]12C)[C@@]1(C)CC[C@H](OC(=O)CCCC[C@@H]2CCSS2)C(C)(C)[C@@H]1CC3 [CLX-SYN-G165-001]	84-87%	13	0	–	–
CCCCS(=N)(=O)CCC(N)C(=O)O [BSO, L-Buthionine-(S,R)-sulfoximine, reference compound]	–	–	–	about 55%	100
